Test in all cases: NCI anticancer screen, dose series, 48 h
Assay [1] deals with 786-0 renal.
Assay [2] has as its system DU-145 prostate.
For assay [3], the system named is MDA-MB-231 breast.
For assay [4], the system named is MOLT-4 leukemia.
Assay [5] has as its system NCI-H460 lung.
Assay [6] deals with NCI/ADR-RES ovarian.
The test system of assay [7] is OVCAR-8 ovarian.
In assay [8] the test system is PC-3 prostate.
In assay [9] the test system is SF-268 CNS.
In assay [10] the test system is UACC-62 melanoma.

Results on ten compounds are retold here after PubChem BioAssay (NCI).

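96-well plates; 48 h exposure; 5 concentrations. Endpoints by linear interpolation between flanking doses. Not reached: highest tested concentration assigned. Here, GI50 denotes the concentration required for 50% inhibition of growth. TGI: concentration producing complete growth inhibition.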 Where only a bound is given, the exact number is not on record here.

Regarding `O=C1c2c(c3c4ccccc4n(CCCCCCN4CCOCC4)c3c3[nH]c4ccccc4c23)C(=O)N1O`, the GI50 is 1.96 µM in assay [1]; 11.5 µM in assay [2]; 2.17 µM in assay [3]; 1.79 µM in assay [4]; 1.81 µM in [5]; over 69.8 µM in assay [6]. Also, the GI50 in assay [7] was 2.44 µM; in assay [8], 12.1 µM; in [9] it was 15.8 µM; in [10], 1.91 µM. The TGI is 5.43 µM in [1]; over 100 µM in assay [2]; 7.76 µM in [3]; 4.63 µM in assay [4]; 3.66 µM in assay [5]; over 100 µM in [6]. Also, the TGI is 9.39 µM in [7], over 57 µM in [8], 39.4 µM in assay [9] and 4.62 µM in assay [10].
Take `CCCCNP1(NCCCC)=NP(NCCCC)(NCCCC)=NP(NCCCC)(NCCCC)=NP(NCCCC)(NCCCC)=N1`: the GI50 in [1] is 1.34 µM; in [2], 0.895 µM; in assay [3], 0.418 µM; in assay [4], 0.491 µM; in assay [5] it was 0.594 µM; in [6], 73.3 µM. Further, the GI50 in assay [7] is 1.98 µM; in assay [8], 0.24 µM; in assay [9], 1.53 µM; in assay [10], 0.567 µM. Besides, the TGI in [1] was 5.26 µM; in assay [2], 15.2 µM; in assay [3], 4.08 µM; in assay [4] it was 3.99 µM; in [5], 4.25 µM; in [6] it was over 100 µM. Also, the TGI in assay [7] stood at 17.4 µM; in assay [8], 12.4 µM; in assay [9], 21.2 µM; in assay [10], 5.91 µM.
For the compound `O=C(CS(=O)c1nc2ccccc2nc1-c1ccccc1)Nc1ccc(Cl)cc1` (centres undefined), the GI50 is 26.5 µM in assay [1]; 25.7 µM in assay [2]; 18.5 µM in assay [3]; 24.4 µM in assay [4]; 18.6 µM in [5]; 26.4 µM in assay [6]. The GI50 was 38.3 µM in assay [7], 26.1 µM in assay [8], 24.9 µM in assay [9] and 16 µM in assay [10]. In addition, the TGI in [1] was 71.7 µM; in assay [2], over 100 µM; in assay [3], 49.1 µM; in assay [4], 69.3 µM; in assay [5] it was 47.7 µM; in [6], 81.2 µM. Besides, the TGI in assay [7] is over 100 µM; in assay [8] it was over 100 µM; in assay [9], 88.2 µM; in assay [10], 40.7 µM.
In the case of `Cn1c2ccccc2c2c(=O)n(CCCC(=O)NCCc3cnc[nH]3)c3c(-c4ccccc4)nnn3c21`, the GI50 was 2.19 µM in assay [1]; 6.88 µM in assay [2]; 9.27 µM in assay [3]; 3.95 µM in assay [4]; 10.9 µM in assay [5]; over 50 µM in assay [6]. Besides, the GI50 in assay [7] was 10.1 µM; in assay [8] it was 9.01 µM; in assay [9], 11.7 µM; in assay [10] it was 9.87 µM. Moreover, the TGI was 8.15 µM in assay [1]; 13.8 µM in assay [2]; 18.6 µM in [3]; 21.5 µM in assay [4]; 24.3 µM in assay [5]; over 50 µM in assay [6]. The TGI in [7] was determined as 20.8 µM; in assay [8], 20.1 µM; in assay [9] it was 31.6 µM; in [10], 17.6 µM.
Turning to `CCN(CC)CCNc1ccc(N=Nc2cnc3ccccc3c2)c2ccccc12`, the GI50 was 1.93 µM in assay [1]; 1.83 µM in assay [2]; 1.12 µM in [3]; 1.56 µM in assay [4]; 1.72 µM in assay [5]; 2.29 µM in [6]. Also, the GI50 was 2.09 µM in [7], 1.28 µM in [8], 1.74 µM in assay [9] and 1.7 µM in assay [10]. In addition, the TGI in assay [1] stood at 3.35 µM; in [2] it was 3.22 µM; in assay [3] it was 2.38 µM; in assay [4], 3.03 µM; in assay [5], 3.18 µM; in [6] it was 5.15 µM. For the same compound, the TGI worked out at 4.19 µM in assay [7], 2.6 µM in [8], 3.48 µM in assay [9] and 3.21 µM in assay [10].
Regarding `Cc1c(C(=O)/C=C/c2ccc(Cl)cc2)nnn1-c1ccnc2c(C(F)(F)F)cccc12`, the GI50 in [1] is 45.6 µM; in assay [2], over 100 µM; in assay [3] it was 17.2 µM; in [4], 19.3 µM; in [5], 48.9 µM; in assay [6], 48.4 µM. Besides, the GI50 in [7] is 42.7 µM; in assay [8], 26.1 µM; in [9], 21.5 µM; in assay [10], 26.5 µM. Further, the TGI in [1] is over 100 µM; in assay [2], over 100 µM; in assay [3], 72.7 µM; in [4], 68.3 µM; in assay [5], over 100 µM; in [6], over 100 µM. Further, the TGI in assay [7], in [8], in [9] and in assay [10] was over 100 µM throughout.
Regarding `CCCCCCCCCCCCSC1=CC(=O)C=CC1=O`, the GI50 in assay [1] is 9.94 µM; in [2], 15.1 µM; in assay [3], 5.36 µM; in [4], 0.218 µM; in [5], 13.9 µM; in assay [6], 1.65 µM. For the same compound, the GI50 is 1.79 µM in assay [7], 0.672 µM in [8], 2.24 µM in assay [9] and 7.59 µM in [10]. The TGI was over 33.5 µM in assay [1]; over 50 µM in assay [2]; 17.1 µM in assay [3]; 8.97 µM in assay [4]; over 50 µM in [5]; over 20.6 µM in assay [6]. The TGI was 32.1 µM in assay [7], 4.21 µM in assay [8], 10.4 µM in [9] and over 36.9 µM in [10].
`O=C1/C=C/[C@@H](O)[C@@H]2C[C@@H](O)C[C@H]2/C=C/CCC[C@H](CCc2ccc(NC(=S)Nc3ccc4c(c3)C(=O)OC43c4ccc(O)cc4Oc4cc(O)ccc43)cc2)O1`: the GI50 in assay [1] was 0.262 µM; in [2], 2.81 µM; in assay [3] it was 0.21 µM; in assay [4], 0.432 µM; in assay [5] it was 2.62 µM; in [6] it was 0.407 µM. In addition, the GI50 was 0.401 µM in [7], 0.516 µM in [8], 0.405 µM in [9] and 0.397 µM in assay [10]. The TGI in assay [1] was 0.771 µM; in assay [2] it was over 100 µM; in assay [3], 0.402 µM; in [4], 4.07 µM; in assay [5] it was over 100 µM; in assay [6], over 100 µM. In addition, the TGI in assay [7] is over 100 µM; in [8], over 100 µM; in assay [9], over 100 µM; in assay [10] it was 30.7 µM.
As for `CC[C@H](C)C(=O)O[C@H]1CCC=C2C=C[C@H](C)[C@H](CC[C@@H]3C[C@@H](O)CC(=O)O3)[C@H]21`, the GI50 in assay [1] is 8.95 µM; in [2], 51.6 µM; in [3], 0.352 µM; in assay [5], 8.59 µM; in assay [6], 3.34 µM; in assay [7], 5.05 µM. Moreover, the GI50 in assay [8] was 1.7 µM; in assay [9], 2.14 µM; in assay [10], 2.51 µM. Further, the TGI in [1] is over 74.5 µM; in assay [2], over 100 µM; in assay [3], 2.54 µM; in assay [4], over 100 µM; in [5] it was over 100 µM; in assay [6], over 100 µM. Besides, the TGI in [7] was over 100 µM; in assay [8] it was over 100 µM; in assay [9], over 100 µM; in assay [10] it was over 24.4 µM.
In the case of `CCc1c2c(nc3ccc(OC(=O)OCc4ccc(B5OC(C)(C)C(C)(C)O5)cc4)cc13)-c1cc3c(c(=O)n1C2)COC(=O)[C@]3(O)CC`, the GI50 in [1] is under 0.01 µM; in [2], under 0.01 µM; in assay [3], 0.892 µM; in assay [4], under 0.01 µM; in assay [5], under 0.01 µM; in [6], 0.0273 µM. For the same compound, the GI50 in [7] was under 0.0111 µM; in assay [8] it was 0.0514 µM; in assay [9] it was under 0.01 µM; in assay [10] it was under 0.01 µM. Moreover, the TGI is 0.289 µM in [1]; over 53.3 µM in assay [2]; 43.7 µM in [3]; over 100 µM in [4]; 0.182 µM in assay [5]; over 100 µM in assay [6]. Further, the TGI in assay [7] is over 71.4 µM; in [8], over 100 µM; in [9], 1.69 µM; in assay [10], 0.104 µM.
